The target in data set [1] is Leucine-rich repeat serine/threonine-protein kinase 2 (Homo sapiens, UniProt Q5S007).
Description: Inhibition of GST-tagged human recombinant wild type LRRK2 using fluorescein- ERM as substrate after 1 hr by TR-FRET assay
Data set [2] can be described thus: in vivo. The note with it: rat, iv, 2 mg/kg.
Description: Half life in rat at 2 mg/kg, iv
Data set [3] is described as follows: in vivo. The settings on record: rat, po, 10 mg/kg.
Data set [4] in a line: in vivo. The note with it: rat, po, 10 mg/kg. This is another data set of the same source.
Data set [5] in a line: in vivo. The note with it: rat, po, 10 mg/kg. This is another data set of the same source.
The nature of data set [6]: in vivo. The note with it: rat, plasma, ip, 5 mg/kg.
Description: Plasma concentration in rat at 5 mg/kg, ip after 1 hr
The nature of data set [7]: in vivo. The settings on record: rat, cerebrospinal fluid, ip, 5 mg/kg.
Description: Drug uptake in CSF in rat at 5 mg/kg, ip after 1 hr
Data set [8] is described as follows: in vivo. The settings on record: rat, plasma, iv, 2 mg/kg.
Data set [9] can be described thus: in vitro. The note with it: rat, in vivo.
Description: Intrinsic clearance in rat
Data set [10] is described as follows: Protein binding in rat plasma. Type of data set: ADME, cell-free. The note with it: read-out: PPB (converted).

SMILES strings stand for the structures.

Sequence of Leucine-rich repeat serine/threonine-protein kinase 2 (Q5S007 whole entry): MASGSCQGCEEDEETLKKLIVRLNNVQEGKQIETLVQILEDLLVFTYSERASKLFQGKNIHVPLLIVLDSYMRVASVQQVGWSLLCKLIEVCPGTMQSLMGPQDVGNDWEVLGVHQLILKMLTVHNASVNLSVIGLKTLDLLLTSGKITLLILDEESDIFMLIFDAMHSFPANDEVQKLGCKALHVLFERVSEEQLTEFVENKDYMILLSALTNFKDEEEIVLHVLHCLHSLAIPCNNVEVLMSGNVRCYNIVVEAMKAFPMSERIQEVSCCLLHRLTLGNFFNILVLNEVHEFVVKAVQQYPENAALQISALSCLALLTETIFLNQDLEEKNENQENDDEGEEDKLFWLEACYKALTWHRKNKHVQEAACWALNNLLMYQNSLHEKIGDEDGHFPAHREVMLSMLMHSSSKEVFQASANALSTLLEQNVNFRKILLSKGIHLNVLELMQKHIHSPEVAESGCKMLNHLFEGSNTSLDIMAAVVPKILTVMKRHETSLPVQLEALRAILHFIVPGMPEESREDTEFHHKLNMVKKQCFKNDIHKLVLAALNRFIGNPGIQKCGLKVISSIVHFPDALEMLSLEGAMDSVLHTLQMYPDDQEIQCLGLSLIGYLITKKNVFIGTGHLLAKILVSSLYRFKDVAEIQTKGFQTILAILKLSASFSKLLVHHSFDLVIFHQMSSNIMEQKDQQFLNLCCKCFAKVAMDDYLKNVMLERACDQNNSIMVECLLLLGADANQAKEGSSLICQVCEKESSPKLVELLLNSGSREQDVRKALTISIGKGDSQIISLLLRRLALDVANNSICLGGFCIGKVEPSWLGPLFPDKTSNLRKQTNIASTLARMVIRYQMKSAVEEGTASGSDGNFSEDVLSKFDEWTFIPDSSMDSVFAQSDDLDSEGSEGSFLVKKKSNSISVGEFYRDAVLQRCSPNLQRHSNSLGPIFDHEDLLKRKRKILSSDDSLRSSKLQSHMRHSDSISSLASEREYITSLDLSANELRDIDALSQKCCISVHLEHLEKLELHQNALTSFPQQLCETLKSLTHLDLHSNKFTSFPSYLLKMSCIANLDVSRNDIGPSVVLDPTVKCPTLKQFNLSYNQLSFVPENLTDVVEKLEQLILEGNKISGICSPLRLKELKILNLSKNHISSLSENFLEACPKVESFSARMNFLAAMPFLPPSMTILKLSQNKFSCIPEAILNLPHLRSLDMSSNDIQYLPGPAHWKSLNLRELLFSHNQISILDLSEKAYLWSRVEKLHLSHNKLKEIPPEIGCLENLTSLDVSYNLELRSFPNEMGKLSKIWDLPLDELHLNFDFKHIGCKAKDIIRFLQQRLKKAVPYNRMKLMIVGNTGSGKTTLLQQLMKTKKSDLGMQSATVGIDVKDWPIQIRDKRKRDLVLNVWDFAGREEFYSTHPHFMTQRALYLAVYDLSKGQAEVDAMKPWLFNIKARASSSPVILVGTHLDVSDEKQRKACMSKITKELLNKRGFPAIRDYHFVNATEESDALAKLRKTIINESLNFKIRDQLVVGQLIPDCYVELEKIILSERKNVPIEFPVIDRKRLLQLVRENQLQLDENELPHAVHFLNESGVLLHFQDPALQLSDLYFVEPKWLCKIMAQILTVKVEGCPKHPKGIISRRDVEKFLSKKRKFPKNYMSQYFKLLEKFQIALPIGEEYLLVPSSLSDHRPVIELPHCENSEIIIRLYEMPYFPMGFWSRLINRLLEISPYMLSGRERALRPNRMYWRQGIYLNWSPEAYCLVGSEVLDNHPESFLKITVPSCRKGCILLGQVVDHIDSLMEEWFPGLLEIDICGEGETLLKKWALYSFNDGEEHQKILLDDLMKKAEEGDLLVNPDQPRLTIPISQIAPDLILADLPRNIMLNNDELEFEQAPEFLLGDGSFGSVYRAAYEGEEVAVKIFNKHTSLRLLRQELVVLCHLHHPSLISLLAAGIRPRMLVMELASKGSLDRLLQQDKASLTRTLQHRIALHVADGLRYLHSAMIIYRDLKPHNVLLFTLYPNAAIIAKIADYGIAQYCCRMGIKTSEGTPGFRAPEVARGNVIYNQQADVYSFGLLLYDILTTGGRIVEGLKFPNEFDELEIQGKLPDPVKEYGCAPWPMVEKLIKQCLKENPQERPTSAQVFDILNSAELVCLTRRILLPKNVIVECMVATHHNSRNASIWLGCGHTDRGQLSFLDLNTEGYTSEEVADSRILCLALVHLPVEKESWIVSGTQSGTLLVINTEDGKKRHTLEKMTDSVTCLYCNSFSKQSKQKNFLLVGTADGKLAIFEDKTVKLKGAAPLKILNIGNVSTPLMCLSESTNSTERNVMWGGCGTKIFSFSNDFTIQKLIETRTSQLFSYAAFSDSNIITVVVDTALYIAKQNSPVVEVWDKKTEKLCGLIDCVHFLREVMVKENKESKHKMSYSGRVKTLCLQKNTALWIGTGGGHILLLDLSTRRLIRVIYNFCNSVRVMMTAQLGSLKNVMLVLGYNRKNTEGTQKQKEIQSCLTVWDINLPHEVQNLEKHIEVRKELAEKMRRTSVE

On to `O=C1NCCc2c(-c3cc[nH]n3)sc(SC3CC3)c21`, for which the Ki in data set [1] stood at 0.614 µM.
`CC1(C)CC(=O)c2c(NC3CCCC3)sc(-c3cc[nH]n3)c2C1`: in data set [1], the Ki worked out at 2.79 µM.
`CSc1sc(-c2cc[nH]n2)c2c1C(=O)N(C)CC2` showed an inhibitory constant (Ki) in [1] of 5.57 µM.
The same measure, in the same setting: the figure for `CCSc1sc(-c2cc[nH]n2)c2c1C(=O)CC(C)(C)C2` is 0.156 µM.
The same measure, in the same setting: for `Cc1nnc(Sc2sc(-c3cc[nH]n3)c3c2C(=O)CC(C)(C)C3)s1` the value was 0.993 µM.
Same read-out and setting: the figure for `CCCc1sc(-c2cc[nH]n2)c2c1C(=O)CC(C)(C)C2` is 5.29 µM; for `O=C1NCCc2c(-c3cc[nH]n3)sc(SC3CCCC3)c21` it is 0.459 µM; for `C[C@H]1CNC(=O)c2c(SCC3CC3)sc(-c3cc[nH]n3)c21` it is 0.083 µM.
In turn, `CSc1sc(-c2cc[nH]n2)c2c1C(=O)NCC2` displayed an inhibition constant (Ki) in data set [1] of 3.41 µM. In data set [2], this molecule had a half-life of 1.4 h. The molecule also had a bioavailability in data set [3] of 70%. In addition, in data set [4], the Cmax worked out at 4.8 µM. In data set [5], the exposure (AUC) is 14 µM·h. Also, the concentration at 1 h in data set [6] was 28.3 µM; in data set [7], 0.5 µM. Further, the clearance in [8] was determined as 2.85 L/h/kg. In data set [9], this molecule yielded a CLint scaled of 78 L/h/kg.
In data set [1], `CSc1sc(-c2cc[nH]n2)c2c1C(=O)NC1(CCCC1)C2` yielded an inhibitory constant (Ki) of 0.411 µM.
For `CC1(C)CC(=O)c2c(SC3CCCC3)sc(-c3cc[nH]n3)c2C1`, in data set [10], the fraction unbound is 0.007. This molecule came in with an inhibitory constant (Ki) in data set [1] of 0.389 µM. This molecule gave a half-life in [2] of 1.2 h. Further, the bioavailability in data set [3] worked out at 0.2%. Also, the Cmax in [4] worked out at 0.12 µM. The molecule also came in with an area under the curve (AUC) in data set [5] of 0.01 µM·h. Also, the concentration at 1 h in data set [6] was found to be 0.97 µM; in data set [7] it was 0.01 µM. Moreover, the clearance in [8] came to 5.73 L/h/kg.
The molecule `CC1(C)CC(=O)c2c(S(C)(=O)=O)sc(-c3cc[nH]n3)c2C1` registered an inhibition constant (Ki) in [1] of 7.13 µM. This counts as single-digit micromolar.
The molecule `O=C1NCCc2c(-c3cc[nH]n3)sc(SC3CCCCC3)c21` came in with a Ki in data set [1] of 0.919 µM. Compared with the last molecule, the Ki is about 7.8-fold lower.
The same measure, in the same setting: for `CSc1sc(-c2cc[nH]n2)c2c1C(=O)NC[C@@H]2C` the value was 0.319 µM.
As to `O=C1NCCc2c(-c3cc[nH]n3)sc(Sc3ccccc3)c21`, the inhibition constant (Ki) in [1] stood at 4.46 µM.
Still for that read-out and setting: the figure for `CSc1sc(-c2cc[nH]n2)c2c1C(=O)N[C@H](c1cccnc1)C2` is more than 10 µM; for `CSc1sc(-c2cc[nH]n2)c2c1C(=O)NC(C1CCC1)C2` (racemic) it is 1.05 µM; for `CSc1sc(-c2cc[nH]n2)c2c1C(=O)N(c1ccccc1)CC2` it is 4.71 µM.
Still for that read-out and setting: for `CSc1sc(-c2cc[nH]n2)c2c1C(=O)NC1(CC1)C2` the value was more than 10 µM.
The molecule `CCCSc1sc(-c2cc[nH]n2)c2c1C(=O)NC[C@@H]2C` gave a Ki in data set [1] of 0.084 µM. In data set [2], this molecule had a half-life of 3.6 h. In data set [3], the bioavailability turned out to be 98%. The Cmax in [4] is 16 µM. The exposure (AUC) in data set [5] was determined as 46.1 µM·h. Further, the values for the concentration at 1 h in [6] and in data set [7] were 24.4 µM and 0.15 µM, respectively. In addition, the clearance in data set [8] was 0.714 L/h/kg. In data set [9], this molecule registered an intrinsic metabolic clearance (CLint scaled) of 72 L/h/kg.
In data set [1], `CC1(C)CC(=O)c2c(OC3CCCC3)sc(-c3cc[nH]n3)c2C1` showed an inhibition constant (Ki) of 0.475 µM. That is a sub-micromolar value.
The molecule `CSc1sc(-c2cc[nH]n2)c2c1C(=O)NC(c1cccc(F)c1)C2` (racemic) yielded an inhibitory constant (Ki) in data set [1] of 3.29 µM.
Turning to `O=C1CCCc2c(-c3cc[nH]n3)sc(NC3CCCC3)c21`, the Ki in data set [1] was more than 10 µM.
Still for that read-out and setting: the figure for `CSc1sc(-c2cc[nH]n2)c2c1C(=O)NC(C(F)(F)F)C2` (racemic) is 0.501 µM; for `CCCSc1sc(-c2cc[nH]n2)c2c1C(=O)NCC2` it is 0.572 µM; for `CSc1sc(-c2cc[nH]n2)c2c1C(=O)NC(C)C2` (racemic) it is 1.24 µM.
The same measure, in the same setting: for `CC1(C)CC(=O)c2c(SCC3CC3)sc(-c3cc[nH]n3)c2C1` the value was 0.172 µM; for `CSc1sc(-c2cc[nH]n2)c2c1C(=O)NC(c1ccc(F)cc1)C2` (racemic), 0.271 µM.
Still for that read-out and setting: the figure for `CC1(C)CC(=O)c2c(SCCc3ccccc3)sc(-c3cc[nH]n3)c2C1` is 1.89 µM; for `CC[C@H]1CNC(=O)c2c(SCC3CC3)sc(-c3cc[nH]n3)c21` it is 0.058 µM; for `CSc1sc(-c2cc[nH]n2)c2c1C(=O)NC[C@H]2C` it is 0.603 µM.
With `CC(C)Sc1sc(-c2cc[nH]n2)c2c1C(=O)CC(C)(C)C2`, the Ki in [1] turned out to be 0.256 µM.
The same measure, in the same setting: for `CC1(C)CC(=O)c2c(SCc3ccccc3)sc(-c3cc[nH]n3)c2C1` the value was more than 10 µM.
In turn, `CSc1sc(-c2cc[nH]n2)c2c1C(=O)CCC2` registered an inhibitory constant (Ki) in data set [1] of 0.312 µM. Besides, in [2], the half-life is 6.5 h. The molecule further yielded a bioavailability in data set [3] of 33%. The molecule also showed a Cmax in data set [4] of 1.6 µM. The area under the curve (AUC) in [5] was found to be 3.8 µM·h. Besides, the concentration at 1 h was determined as 2.33 µM in data set [6] and 0.05 µM in data set [7]. The same molecule yielded a clearance in [8] of 3.36 L/h/kg. The same molecule gave a CLint scaled in data set [9] of 390 L/h/kg.
The molecule `O=C1CCCc2c(-c3cc[nH]n3)sc(SC3CCCC3)c21` gave a Ki in data set [1] of 0.295 µM.
Consider `CSc1sc(-c2cc[nH]n2)c2c1C(=O)NC1(CCC1)C2`, for which, in data set [1], the Ki came out at 0.233 µM.
The same measure, in the same setting: for `CCSc1sc(-c2cc[nH]n2)c2c1C(=O)NCC2` the value was 0.589 µM; for `CSc1sc(-c2cc[nH]n2)c2c1C(=O)NC(Cc1ccccc1)C2` (racemic), 0.928 µM.
Still for that read-out and setting: for `CSc1sc(-c2cc[nH]n2)c2c1C(=O)NC[C@H]2Cc1ccccc1` the value was 0.342 µM; for `CC1(C)CC(=O)c2c(SCCO)sc(-c3cc[nH]n3)c2C1`, 0.515 µM.
In the case of `CC(C)Sc1sc(-c2cc[nH]n2)c2c1C(=O)NCC2`, the inhibitory constant (Ki) in data set [1] was 0.988 µM.
Still for that read-out and setting: the figure for `CSc1sc(-c2ccn(C)n2)c2c1C(=O)CC(C)(C)C2` is 5.58 µM; for `CSc1sc(-c2cc[nH]n2)c2c1C(=O)CC(C)(C)C2` it is 0.377 µM.
The same measure, in the same setting: the figure for `CCCSc1sc(-c2cc[nH]n2)c2c1C(=O)NC[C@@H]2CC` is 0.068 µM.

Values taken from ChEMBL document CHEMBL3797078, “Potent, selective and orally bioavailable leucine-rich repeat kinase 2 (LRRK2) inhibitors” (Bioorg Med Chem Lett, 2016).
